Converted amounts (≈) assume the structure as drawn. Read-outs that look alike come from different tables or passages of the source.
Test: Solubility testing of (Z)-endoxifen in single solvents
Format: physicochemical
Conditions: for solubility at 15 min: 25 °C; for solubility at 15 min / solubility: organic solvent or mixture, thermodynamic from solid
Protocol: To test the solubility of (Z)-endoxifen in varying conditions, 10 mg of (Z)-endoxifen was added to a stoppered tube, and 0.01 ml of the selected solvent was added (1000 mg/ml solution). The tube was shaken vigorously for 1 minute and then incubated at a constant temperature of 25.0° C. for 15 minutes. If the solid was not completed dissolved, the tube was shaken again and placed at the constant temperature of 25.0° C. for another 15 minutes. If the solid was completely dissolved at this step, it was considered to be very soluble in the selected solvent system. If the solid was not dissolved by this step, another 0.09 ml was added (yielding a 100 mg/ml solution) and an attempt to further dissolve the solid was made by the same steps of shaking and incubating twice over as described previously. If the solid was completely dissolved at this step, it was considered freely soluble. If the solid was not dissolved by this step another 0.2 ml was added (yielding a 33.3 mg/ml solution) and an attempt to further dissolve the solid was made by the same steps of shaking and incubating twice over as described previously. If the solid was completely dissolved at this step, it was considered soluble. If the solid was not dissolved by this step another, 0.7 ml was added (yielding a 10 mg/ml solution) and an attempt to further dissolve the solid was made by the same steps of shaking and incubating twice over as described previously. If the solid was completely dissolved at this step, it was considered sparingly soluble. If the solid was not dissolved by this step the sample was considered to be slightly soluble or very slightly soluble and the solution was heated until the boiling point of the solvent system (max 100° C.) under stirring with a rate of 0.5° C. per minute temperature ramp rate to verify the solubility at high temperatures. The hot solution was after cooled to room temperature with a cooling rate of 0.5° C. per minute to verify if the sample had precipitated after up to 18 hours under magnetic stirring. The same procedure was also used for the solvent mixture solubility tests. The concentrations investigated for the solvent mixture stability were 40 mg/ml and 100 mg/ml. Some solutions in the following example were precipitated by cooling of the solution from a temperature between 50-100° C. to between 10-25° C. at a rate ranging from −0.2 to −0.5° C./minute resulting in a precipitate.

For `CC/C(=C(\c1ccc(O)cc1)c1ccc(OCCNC)cc1)c1ccccc1` [(Z)-endoxifen, (Z)-4-(1-(4-(2-(methylamino)ethoxy)phenyl)-2-phenylbut-1-enyl)phenol], the solubility at 15 min (2-propanol, 2-propanol, room temperature, read-out: Solubility) was 10000 µg/mL (≈ 26.8 mM), the solubility at 15 min (2-propanol, solvent 2-propanol, room temperature, read-out: Solubility at RT) was 10000 µg/mL (≈ 26.8 mM) and the solubility (2-propanol, 2-propanol, high temperature, read-out: Solubility) was 20000 to 100000 µg/mL (≈ 53.5 to 268 mM). The solubility at 15 min (4-met-2-pentanone, 4-met-2-pentanone, room temperature, read-out: Solubility) was 10000 µg/mL (≈ 26.8 mM), the solubility (4-met-2-pentanone, 4-met-2-pentanone, high temperature, read-out: Solubility) was 100000 to 200000 µg/mL (≈ 268 to 535 mM) and the solubility at 15 min (DMF, DMF, read-out: Solubility) was 250000 to 500000 µg/mL (≈ 669 to 1340 mM). It also gave a solubility at 15 min (THF, THF, read-out: Solubility) of 111000 to 125000 µg/mL (≈ 297 to 335 mM), a solubility at 15 min (acetone, acetone, room temperature, read-out: Solubility) of 10000 µg/mL (≈ 26.8 mM) and a solubility at 15 min (acetone, solvent acetone, room temperature, read-out: Solubility at RT) of 10000 µg/mL (≈ 26.8 mM). The solubility (acetone, acetone, high temperature, read-out: Solubility) was under 50000 µg/mL, the solubility (acetone, solvent acetone, 100 mg/mL, high temperature, read-out: Solubility HT (100 mg/mL): Sol. HT) was under 100000 µg/mL and the solubility at 15 min (acetonitrile, acetonitrile, room temperature, read-out: Solubility) was under 10000 µg/mL. It also gave a solubility at 15 min (acetonitrile, solvent acetonitrile, room temperature, read-out: Solubility at RT) of under 10000 µg/mL, a solubility (acetonitrile, acetonitrile, high temperature, read-out: Solubility) of 20000 to 100000 µg/mL (≈ 53.5 to 268 mM) and a solubility (acetonitrile, solvent acetonitrile, 100 mg/mL, high temperature, read-out: Solubility HT (100 mg/mL): Sol. HT) of under 100000 µg/mL. For the same molecule, the solubility at 15 min (butyl acetate, butyl acetate, room temperature, read-out: Solubility) was 10000 µg/mL (≈ 26.8 mM), the solubility at 15 min (butyl acetate, solvent butyl acetate, room temperature, read-out: Solubility at RT) was 10000 µg/mL (≈ 26.8 mM) and the solubility (butyl acetate, butyl acetate, high temperature, read-out: Solubility) was 20000 to 100000 µg/mL (≈ 53.5 to 268 mM). It also gave a solubility at 15 min (butyl methyl ether, solvent butyl methyl ether, room temperature, read-out: Solubility at RT) of 10000 µg/mL (≈ 26.8 mM), a solubility (butyl methyl ether, solvent butyl methyl ether, 10 mg/mL, high temperature, read-out: Solubility HT (10 mg/mL): Sol. HT) of under 10000 µg/mL and a solubility at 15 min (dimethylformamide (stored as limethylformamide), solvent limethylformamide, room temperature, read-out: Solubility at RT) of 200000 to 250000 µg/mL (≈ 535 to 669 mM). For the same molecule, the solubility at 15 min (ethanol, ethanol, room temperature, read-out: Solubility) was 10000 µg/mL (≈ 26.8 mM), the solubility at 15 min (ethanol, solvent ethanol, room temperature, read-out: Solubility at RT) was 10000 µg/mL (≈ 26.8 mM) and the solubility (ethanol, ethanol, high temperature, read-out: Solubility) was 20000 to 100000 µg/mL (≈ 53.5 to 268 mM). It also gave a solubility at 15 min (ethyl acetate, ethyl acetate, room temperature, read-out: Solubility) of 10000 µg/mL (≈ 26.8 mM), a solubility at 15 min (ethyl acetate, solvent ethyl acetate, room temperature, read-out: Solubility at RT) of 10000 µg/mL (≈ 26.8 mM) and a solubility (ethyl acetate, ethyl acetate, high temperature, read-out: Solubility) of 20000 to 100000 µg/mL (≈ 53.5 to 268 mM). It also gave a solubility at 15 min (heptane, heptane, room temperature, read-out: Solubility) of under 10000 µg/mL, a solubility at 15 min (heptane, solvent heptane, room temperature, read-out: Solubility at RT) of under 10000 µg/mL and a solubility (heptane, heptane, high temperature, read-out: Solubility) of under 10000 µg/mL. For the same molecule, the solubility (heptane, solvent heptane, 10 mg/mL, high temperature, read-out: Solubility HT (10 mg/mL): Sol. HT) was under 10000 µg/mL, the solubility at 15 min (methanol, methanol, read-out: Solubility) was 17000 to 20000 µg/mL (≈ 45.5 to 53.5 mM) and the solubility at 15 min (methanol, solvent methanol, room temperature, read-out: Solubility at RT) was 17000 to 20000 µg/mL (≈ 45.5 to 53.5 mM). For the same molecule, the solubility at 15 min (methyl isobutyl ketone (4-methyl-2-pentanone), solvent methyl isobutyl ketone (4-methyl-2-pentanone), room temperature, read-out: Solubility at RT) was 10000 µg/mL (≈ 26.8 mM), the “Solubility HT (10 mg/mL): Clear point” value (solvent 2-propanol, 10 mg/mL) was 44 °C and the “Solubility HT (10 mg/mL): Sol. HT” value (solvent 2-propanol, 10 mg/mL, high temperature) was “YES”. The “Solubility HT (20 mg/mL): Clear point” value (solvent 2-propanol, 20 mg/mL) was 50.6 °C, the “Solubility HT (20 mg/mL): Sol. HT” value (solvent 2-propanol, 20 mg/mL, high temperature) was “YES” and the “Solubility HT (20 mg/mL): Re-PPT” value (solvent 2-propanol, 20 mg/mL, on cooling) was “YES”. For the same molecule, the “Solubility HT (100 mg/mL): Clear point” value (solvent 2-propanol, 100 mg/mL) was 74.4 °C, the “Solubility HT (100 mg/mL): Cloudy point” value (solvent 2-propanol, 100 mg/mL) was 43.9 °C and the “Solubility HT (100 mg/mL): Sol. HT” value (solvent 2-propanol, 100 mg/mL, high temperature) was “YES”. For the same molecule, the “Solubility HT (100 mg/mL): Re-PPT” value (solvent 2-propanol, 100 mg/mL, on cooling) was “YES”, the “Solubility HT (10 mg/mL): Clear point” value (solvent acetone, 10 mg/mL) was 30 °C and the “Solubility HT (10 mg/mL): Sol. HT” value (solvent acetone, 10 mg/mL, high temperature) was “YES”. For the same molecule, the “Solubility HT (20 mg/mL): Clear point” value (solvent acetone, 20 mg/mL) was 38 °C, the “Solubility HT (20 mg/mL): Re-PPT after 18 hours at −20° C.” value (solvent acetone, 20 mg/mL) was “YES” and the “Solubility HT (20 mg/mL): Sol. HT” value (solvent acetone, 20 mg/mL, high temperature) was “YES”. The “Solubility HT (10 mg/mL): Clear point” value (solvent acetonitrile, 10 mg/mL) was 56 °C, the “Solubility HT (10 mg/mL): Sol. HT” value (solvent acetonitrile, 10 mg/mL, high temperature) was “YES” and the “Solubility HT (10 mg/mL): Re-PPT” value (solvent acetonitrile, 10 mg/mL, on cooling) was “YES”. The “Solubility HT (20 mg/mL): Clear point” value (solvent acetonitrile, 20 mg/mL) was 75 °C, the “Solubility HT (20 mg/mL): Sol. HT” value (solvent acetonitrile, 20 mg/mL, high temperature) was “YES” and the “Solubility HT (20 mg/mL): Re-PPT” value (solvent acetonitrile, 20 mg/mL, on cooling) was “YES”.

— patent US20250066286A1, “COMPOSITIONS OF (Z)-ENDOXIFEN AND METHODS OF ENRICHMENT THEREOF” (Atossa Therapeutics, Inc., priority 2022, published 2025)
